Measurements reported in patent US20070269492A1, “New product and use and manufacture thereof” (priority 2006, published 2007).
Read-outs that look alike come from different tables or passages of the source.

What was measured:
[1] = Excerpt: Absorption of nicotine from the oral cavity to the systemic circulation is dependent on the pH of the saliva, pH of the blood plasma and the pKa of nicotine, which is about 7.8. Assuming a pH of the saliva of 6.8, only about 10% of the nicotine will be in the free base form. Thus, in order to promote absorption of nicotine in a free base form, which is the form predominantly absorbed through the mucosa, the pH of the saliva must preferably be increased to at least pH 7 and to at most pH 10, more preferably to at least pH 8 and at most pH 9.5. At a pH of 8.8 about 90% of the nicotine will then be in the free base form.
[2] = cited from earlier work

Compound: CN1CCCC1c1cccnc1 (stereo not drawn) [nicotine, 3-(1-methyl-2-pyrrolidinyl)-pyridine]
- nicotine in the free base form ([1]; pH 8.8): about 90%
- nicotine in the free base form ([1]; saliva pH 6.8): about 10%
- single dose able to kill an adult [2]: Approximately 40 milligrams
